For this test, the target named is T1, 17-beta-hydroxysteroid dehydrogenase 14 (Homo sapiens) (UniProt Q9BPX1).
T1 sequence (whole entry): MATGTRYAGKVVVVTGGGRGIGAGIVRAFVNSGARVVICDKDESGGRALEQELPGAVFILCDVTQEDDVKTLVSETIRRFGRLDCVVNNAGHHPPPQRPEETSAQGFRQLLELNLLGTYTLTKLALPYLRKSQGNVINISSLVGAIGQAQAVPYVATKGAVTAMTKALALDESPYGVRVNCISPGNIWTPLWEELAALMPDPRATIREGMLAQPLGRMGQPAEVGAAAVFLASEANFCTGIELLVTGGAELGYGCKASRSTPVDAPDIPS

In ChEMBL document CHEMBL3826976, “New Insights into Human 17β-Hydroxysteroid Dehydrogenase Type 14: First Crystal Structures in Complex with a Steroidal Ligand and with a Potent Nonsteroidal Inhibitor” (J Med Chem, 2016) one finds ΔTm data, which are given here for two compounds.

A word on the ΔTm: it is the shift of the melting midpoint relative to a reference.

Description: Binding affinity to human 17-beta-HSD14 assessed as change in melting temperature at 0.25 mM by thermal shift assay

As to `C[C@]12CC[C@@H]3c4ccc(O)cc4CC[C@H]3[C@@H]1CC[C@@H]2O`, the ΔTm came out at 1.5 °C. The figure for `C[C@]12CC[C@@H]3c4ccc(O)cc4CC[C@H]3[C@@H]1CCC2=O` is 1.5 °C.
